From US20100221773A1, “Nucleic Acids Encoding a Functional Mammalin Purinoreceptor, P2X3, Methods of Production and Use Thereof” (priority 2005, published 2010)

Assays:
rhesus P2X3 receptor [1] = biological target: T1, rhesus P2X3 receptor (Macaca mulatta, UniProt A0A1D5QSM7); test: In vitro electrophysiological assay (whole-cell patch clamp, PatchXpress); format: cell-based; conditions: for IC50: 100 μM CTP, antagonist preincubation 2 min, whole-cell patch clamp, read-out: IC50, inhibition of CTP-induced currents
Protocol: (§1) Generation of a Rhesus P2X3 Stable Cell Line—Rhesus P2X3 receptor cDNA was subcloned as a 5′HindIII and 3′XhoI fragment into the expression vector pcDNA5/FRT/TO (Invitrogen). Five micrograms of the rhesus P2X3 expression construct was transfected using Lipofectamine 2000 (Invitrogen) into Flp-in T-Rex—293 cells (Invitrogen) according to the manufacturer's directions. Cells positive for flp-mediated recombination of rhesus P2X3 were selected using 300 μg/ml hygromycin. The stable rhesus P2X3 cell line was propagated in DMEM, 10% FBS, 150 μg/ml hygromycin, 15 μg/ml blasticidin, and 100 units/ml penicillin and 100 μg/ml streptomycin, and maintained at 37° and 95% humidity. Cells were subcultured by treatment with 0.25% trypsin with 0.1% EDTA in HBSS.
In vitro Electrophysiological Assay—Cells expressing rhesus P2X3 receptor were grown to a confluence of 65-85% and induced with 1 μg/ml doxycycline 20 to 32 hours prior to assay. After induction the cells were dissociated with trypsin, centrifuged, and resuspended in bath solution at a cell density of 6×10^6 cells/ml and loaded onto PatchXpress. The bath solution contained 150 mM NaCl, 4 mM KCl, 2 mM CaCl2, 1.2 mM MgCl2, 10 mM HEPES, and 11.1 mM glucose, at pH 7.2. The intracellular solution contained 140 mM K-aspartate, 20 mM NaCl, 5 mM HEPES, 10 mM EGTA, at pH 7.2. Agonist stock solutions were prepared in H2O and diluted in bath solution prior to use. All antagonists were prepared as 10 mM stock solutions in DMSO and diluted in bath solution prior to use. All experiments were performed on cells under the whole-cell patch clamp configuration at room temperature. Up to 16 individual cells could be patch clamped simultaneously on the PatchXpress instrument. A baseline response was established by repeated CTP (100 μM; for 2 sec.) followed by antagonist incubation for 2 min. in the absence of CTP. After antagonist preincubation 100 μM CTP and antagonist were co-administered to determine the inhibitory effect of the antagonist. These steps were then repeated on the same cell with a range of concentrations of the antagonist. A maximum of five concentrations of antagonist were tested on any individual cell. The control P2X3 current amplitude (IP2X3-(control)) was taken as an average of the peak current amplitude from the last two agonist additions prior to incubation with an antagonist. The peak P2X3 current amplitude in the presence of an antagonist (IP2X3-(drug)) was used to calculate the inhibitory effect at each concentration of the antagonist according to the following equation:
% inhibition of P2X3=100*(IP2X3-(control)−IP2X3-(drug))/IP2X3-(control)
Each concentration of an antagonist was tested on at least three independent cells. […]

rhesus P2X3 receptor [2] = biological target: T1, rhesus P2X3 receptor; test: Intracellular calcium measurement (FLIPR, Fluo-3) to assess antagonist affinity; format: cell-based; conditions: for IC50: FLIPR, Flp-in T-Rex-293 cells stably expressing rhesus P2X3, antagonist 10 min before agonist αβ-meATP, read-out: IC50, block of αβ-meATP mediated increase in intracellular calcium
Protocol: as §1
Intracellular Calcium Measurement to Assess Antagonist Affinity—A fluorescent imaging plate reader (FLIPR; Molecular Devices) was used to monitor intracellular calcium levels using the calcium-chelating dye Fluo-3 (Molecular Probes). Cells expressing the rhesus P2X3 receptor were plated in the presence of 0.5 to 1 μg/ml doxycycline at a density of 30,000 cells/well in 384-well black-walled plates approximately 20 hours before beginning the assay. Cells were washed with HBSS and dye-loaded in HBSS, 2 mM CaCl2, 0.1% BSA, 0.25 mM probenecid, and 4 μM Fluo-3 for 60 min in the dark at room temperature. Prior to compound additions cells were washed with HBSS. Antagonist affinity was determined by the ability of these compounds to inhibit increases of intracellular calcium elicited by the P2X3 agonist αβ-meATP. Ten minutes prior to adding agonist, the antagonist was added and allowed to incubate at room temperature. Following agonist addition fluorescence data was collected at 5 sec intervals and analyzed based on the increase in peak relative fluorescence units (RFU) compared to the basal fluorescence. Antagonist dose-response data expressed as a response ratio (max RFU/min RFU) were analyzed using GraphPad Prism.

EC50 (rhesus P2X3 receptor [1]; patch-clamp, rhesus P2X3 stable cell line, FIG. 2, read-out: EC50, inward current evoked by agonist)	IC50 (rhesus P2X3 receptor [2])	IC50 (rhesus P2X3 receptor [1])	blockade of αβ-meATP activated Ca2+ influx (rhesus P2X3 receptor [2]; FIG. 1, cells incubated with PPADS for 10 min prior to agonist, FLIPR traces)	IC50 (rhesus P2X3 receptor [1]; FIG. 3)	rhesus P2X3 inward current elicited by CTP in the presence of antagonist (rhesus P2X3 receptor [1]; FIG. 3A, 3 μM PPADS, 100 mM CTP (control) as printed)	Compound
1000 nM	–	–	–	–	–	Nc1ncnc2c1ncn2[C@@H]1O[C@H](COP(=O)(O)CP(=O)(O)OP(=O)(O)O)[C@@H](O)[C@H]1O [αβ-meATP]
–	1500 nM	382 nM	–	–	–	Cc1ccc(C(=O)Nc2ccc(S(=O)(=O)O)c3cc(S(=O)(=O)O)cc(S(=O)(=O)O)c23)cc1NC(=O)c1cccc(NC(=O)Nc2cccc(C(=O)Nc3cc(C(=O)Nc4ccc(S(=O)(=O)O)c5cc(S(=O)(=O)O)cc(S(=O)(=O)O)c45)ccc3C)c2)c1 [suramin]
–	2900 nM	–	dose-dependent blockade	2200 nM	diminished	Cc1nc(N=Nc2ccc(S(=O)(=O)O)cc2S(=O)(=O)O)c(COP(=O)(O)O)c(C=O)c1O [PPADS, pyridoxal-phoshpate-6-azophenyl-2′,4′-disulfonic acid]
